Assay results from patent US20230301895A1, “NAIL FORMULATIONS AND TREATMENT REGIMES” (NOVABIOTICS LIMITED, priority 2020, published 2023).
Converted amounts (≈) assume the structure as drawn. Where a SMILES comes first, the peptide text is derived from it. [ ]: non-standard residue; d: D form. The star is where a group is joined. Sta = CC(C)C[C@H](N)[C@@H](O)CC(=O)O; Isovaleryl = CC(C)CC(=O)*

Columns and labels:
[1] = test system: T. rubrum NCPF0118 and T. interdigitale NCPF0335; assay: Antifungal susceptibility testing, summary statements for both dermatophytes; format: cell-based; conditions: Example 4 summary
Description: (§1) Antifungal susceptibility testing to determine the MIC was conducted by the broth microdilution procedure for filamentous fungi (M38-A2) (Clinical & Laboratory Standards Institute (CLSI). 2008. Reference Method for Broth Dilution Antifungal Susceptibility Testing of Filamentous Fungi; Approved Standard - Second Edition (M38-A2). Clinical and Laboratory Standards Institute, Wayne, PA). This experiment was carried out in triplicate with triplicate samples in each experiment. The proteolytic stability of NP213 was assessed by determining NP213 MIC as described above versus T. rubrum NCPF0118 and T. interdigitale NCPF0335 in the presence of the following protease inhibitors; serine proteases (1 mM phenylmethylsulfonyl fluoride; PMSF), metalloproteases (100 µM ethylenediaminetetraacetic acid; EDTA), aspartyl proteases (1 mg/L Pepstatin A) and cysteine proteases (10 µM trans-epoxysuccinyl-L-leucylamido(4-guanidino)butane; E-64).
Antifungal susceptibility testing was carried out as described above, but with the following modifications. RPMI-1640 medium was substituted for 0.5% (w/v) powdered nail, skin keratin or sheep’s wool keratin suspensions in 10 mM sodium phosphate buffer, pH 7.0 containing 0.0025% (w/v) AlamarBlue™ (ThermoFisher Scientific, UK). […]

[2] = test system: T. rubrum NCPF0118; format: cell-based, Trichophyton rubrum; conditions: for effect of protease inhibitor alone on growth: 1 mM PMSF, 1 mg/L Pepstatin A, 10 µM E-64; for effect of protease inhibitor alone on growth / growth inhibition by protease inhibitor alone: 100 µM EDTA; for growth inhibition by protease inhibitor alone: RPMI-1640, 1 mg/L PMSF, 10 µM E64, 1 mg/L pepstatin
Description: as §1
(§2) T. rubrum NCPF0118 and T. interdigitale NCPF0335 in RPMI-1640 liquid medium. MIC was determined by the broth microdilution procedure (CLSI, 2008). Metalloprotease inhibitor -100 µM EDTA; Serine protease inhibitor - 1 mg/L PMSF; Cysteine protease inhibitor -10 µM E64; Aspartyl protease inhibitor - 1 mg/L pepstatin.
(§3) Antifungal susceptibility testing was conducted by the broth microdilution procedure as described in CLSI Approved Standard M38-A2. All peptides were dissolved in sterile deionised water (40 mg/ml) and stored at -20° C. until required. All experiments were carried out in triplicate, with triplicate samples in each experiment.

[3] = test system: T. interdigitale NCPF0335; format: cell-based; conditions: for effect of protease inhibitor alone on growth: 1 mM PMSF, 1 mg/L Pepstatin A, 10 µM E-64; for effect of protease inhibitor alone on growth / growth inhibition by protease inhibitor alone: 100 µM EDTA; for growth inhibition by protease inhibitor alone: RPMI-1640, 1 mg/L PMSF, 10 µM E64, 1 mg/L pepstatin
Description: as §1, §2, §3

[4] = test system: T. rubrum NCPF0118; assay: Metabolic activity (Alamar blue) of T. rubrum exposed to NP213 in dried nail lacquers or PEG4000 formulation; format: cell-based, Trichophyton rubrum
Description: NP213 (5 and 10% w/v) was formulated in 50% (v/v) PEG4000. Alternatively, NP213 was dissolved/suspended in the lacquer formulations at concentrations of 0, 5 or 10 % (w/v). 10 µl of each lacquer was applied to the base of a well in a flat-bottomed 96-well plate in triplicate wells and allowed to dry for 90 min. An inoculum of 3 × 10^3 cfu T. rubrum NCPF0118 was prepared in 1 × RPMI-1640 liquid medium and 200 µl was added to all wells containing lacquers and control wells containing no lacquer (growth control). An additional 3 wells per plate contained 200 µl RPMI-1640 liquid medium without inoculum to serve as sterility controls. To each well was added a minimal volume of Alamar blue solution (0.0025% (w/v) final concentration). Antifungal activity was determined based on changes in metabolic activity (due to metabolism of the cell viability indicator Alamar blue). Metabolic activity was monitored by fluorescence (Ex 530 nm/Em 590 nm) every 24 h for up to 168 h.

[5] = test system: Trichophyton rubrum NCPF0118; assay: Experimental model of dermatophyte nail infection on human nail fragments, colony counts; format: cell-based; conditions: daily application to dorsal side of infected nail; FIG. 15
Description: An experimental model of dermatophyte nail infection was optimized to simulate onychomycosis under laboratory conditions and to test the antifungal efficacy of NP213. As an inert support and to provide a moist atmosphere, sterile water agar plates were prepared in 90-mm Petri dishes (1.5% (w/v) agar in sterile-deionised water). Petri dishes were divided into three sections, and individual pieces of sterile silicone rubber tubing (1-cm diameter; 3-mm height) were placed in each section, allowing the investigation of three nail fragments per plate. This prevented direct contact between the nails and the agar surface or the lid of the Petri dish. Such a setup was necessary because agar contains components that can bind to cationic peptides, including NP213, inhibiting their diffusion and reducing activity. Silicon tubing is permeable to oxygen and carbon dioxide, and its use ensured oxygen access to support fungal growth. Its diameter was sufficiently small to stably support the nail fragments. Uninfected human nails (sourced under ethical approval) were cleaned of all residual skin and debris before cutting to size (approximately four fragments were obtained from an adult great toenail), and their surface area and thickness were determined using a micrometer. […] Samples were plated on potato dextrose agar and incubated at 30° C. for 14 days, and the colonies were counted.

| SMILES | effect of protease inhibitor alone on growth [2] | growth inhibition by protease inhibitor alone [2] | effect of protease inhibitor alone on growth [3] | growth inhibition by protease inhibitor alone [3] | MIC (mg/L) T.rubrum NCPF0118 [2] [mg/L] | MIC (mg/L) T. interdigitale NPCF0335 [3] [mg/L] | other results |
| --- | --- | --- | --- | --- | --- | --- | --- |
| CC(C)C[C@H](NC(=O)[C@@H](O)[C@H](N)Cc1ccccc1)C(=O)O [Bestatin] |  |  |  |  |  |  | effect of metalloprotease inhibitor on the anti-fungal effect of the cyclic peptide [1]: enhanced |
| CC(C)CC(=O)N[C@H](C(=O)N[C@H](C(=O)N[C@@H](CC(C)C)[C@@H](O)CC(=O)N[C@@H](C)C(=O)N[C@@H](CC(C)C)[C@@H](O)CC(=O)O)C(C)C)C(C)C [Pepstatin A] (Isovaleryl-VV[Sta]A[Sta]-OH) | no effect on the growth | did not inhibit growth | no effect on the growth | did not inhibit growth |  |  |  |
| CC(C)C[C@H](NC(=O)[C@H]1O[C@@H]1C(=O)O)C(=O)NCCCCN=C(N)N (relative stereo) [Peptide E-64, trans-epoxysuccinyl-L-leucylamido(4-guanidino)butane] | no effect on the growth | did not inhibit growth | no effect on the growth | did not inhibit growth |  |  |  |
| N=C(N)NCCC[C@@H]1NC(=O)[C@H](CCCNC(=N)N)NC(=O)[C@H](CCCNC(=N)N)NC(=O)[C@H](CCCNC(=N)N)NC(=O)[C@H](CCCNC(=N)N)NC(=O)[C@H](CCCNC(=N)N)NC(=O)[C@H](CCCNC(=N)N)NC(=O)[C@H](CCCNC(=N)N)NC(=O)[C@H](CCCNC(=N)N)NC(=O)[C@H](CCCNC(=N)N)NC(=O)[C@H](CCCNC(=N)N)NC1=O [NP202, cyclic 11 R] |  |  |  |  | 250 (≈ 146 µM) | 15.6 (≈ 9.08 µM) |  |
| N=C(N)NCCC[C@@H]1NC(=O)[C@H](CCCNC(=N)N)NC(=O)[C@H](CCCNC(=N)N)NC(=O)[C@H](CCCNC(=N)N)NC(=O)[C@H](CCCNC(=N)N)NC(=O)[C@H](CCCNC(=N)N)NC(=O)[C@H](CCCNC(=N)N)NC(=O)[C@H](CCCNC(=N)N)NC(=O)[C@H](CCCNC(=N)N)NC(=O)[C@H](CCCNC(=N)N)NC(=O)[C@H](CCCNC(=N)N)NC(=O)[C@H](CCCNC(=N)N)NC(=O)[C@H](CCCNC(=N)N)NC(=O)[C@H](CCCNC(=N)N)NC(=O)[C@H](CCCNC(=N)N)NC1=O [NP203, cyclic 15R] |  |  |  |  | 62.5 (≈ 26.7 µM) | 3.9 (≈ 1.66 µM) |  |
| O=S(=O)(F)Cc1ccccc1 [PMSF, phenylmethylsulfonyl fluoride] | no effect on the growth | did not inhibit growth | no effect on the growth | did not inhibit growth |  |  |  |
| N=C(N)NCCC[C@@H]1NC(=O)[C@H](CCCNC(=N)N)NC(=O)[C@H](CCCNC(=N)N)NC(=O)[C@H](CCCNC(=N)N)NC(=O)[C@H](CCCNC(=N)N)NC(=O)[C@H](CCCNC(=N)N)NC(=O)[C@H](CCCNC(=N)N)NC1=O [NP213, cyclic R-R-R-R-R-R-R] |  |  |  |  | 1000 (≈ 915 µM) | 500 (≈ 457 µM) | antifungal activity in Roehm lacquer 1 compared to NP213 in 50% (v/v) PEG4000 ([4]; 5% and 10% (w/v) NP213, metabolic activity up to 168 h, FIG. 1): lower; antifungal activity in Roehm lacquer 2 compared to NP213 in 50% (v/v) PEG4000 ([4]; 5% and 10% (w/v) NP213, metabolic activity up to 168 h, FIG. 2): lower; antifungal activity in Roehm lacquer 3 compared to NP213 in 50% (v/v) PEG4000 ([4]; 5% and 10% (w/v) NP213, metabolic activity up to 168 h, FIG. 3): lower; antifungal activity in Roehm lacquer 4 compared to NP213 in 50% (v/v) PEG4000 ([4]; 5% and 10% (w/v) NP213, metabolic activity up to 168 h, FIG. 4): lower; antifungal activity in Roehm lacquer 5 compared to NP213 in 50% (v/v) PEG4000 ([4]; 5% and 10% (w/v) NP213, metabolic activity up to 168 h, FIG. 5): lower; antifungal activity in Anacor lacquer C compared to NP213 in 50% (v/v) PEG4000 ([4]; 5% and 10% (w/v) NP213, metabolic activity up to 168 h, FIG. 6): lower; antifungal activity in 2d lacquer compared to NP213 in 50% (v/v) PEG4000 ([4]; 10% (w/v) NP213 in 2d lacquer, metabolic activity up to 168 h, FIG. 7): lower; efficacy in the known nail lacquers ([4]; lacquers manufactured by Anacor and Roehm): not effective; MIC (mg/L) T.interdigitale NCPF0335 [3]: 500 mg/L (≈ 457 µM); time from beginning treatment until antifungal effects are seen [5]: ≤ 11 days |
| O=C(O)CN(CCN(CC(=O)O)CC(=O)O)CC(=O)O [EDTA, ethylenediaminetetraacetic acid] | no effect on the growth | did not inhibit growth | no effect on the growth | did not inhibit growth |  |  | effect of metalloprotease inhibitor on the anti-fungal effect of the cyclic peptide [1]: enhanced |
| N=C(N)NCCC[C@@H]1NC(=O)[C@H](CCCNC(=N)N)NC(=O)[C@H](CCCNC(=N)N)NC(=O)[C@H](CCCNC(=N)N)NC(=O)[C@H](CCCNC(=N)N)NC1=O [NP201, cyclic-5R] (cyclo(RRRRR)) |  |  |  |  | 500 (≈ 640 µM) | 1000 (≈ 1280 µM) |  |
